Measurements as given in ChEMBL document CHEMBL2434881, “Design and evaluation of novel 8-oxo-pyridopyrimidine Jak1/2 inhibitors” (Bioorg Med Chem Lett, 2013).
Converted amounts (≈) assume the structure as drawn.

Experiments:
[1] = Aqueous kinetic solubility of the compound in PBS buffer at pH 7.4; format: physicochemical; conditions: read-out: Kinetic_solubility
[2] = Apparent permeability of the compound from apical to basolateral side of MDCK cells; format: ADME, cell-based, Canis lupus familiaris; conditions: dog

solubility kinetic [1] [µM]	Papp A→B [2] [×10⁻⁶ cm/s]	SMILES
225 (≈ 55 µg/mL)		O=c1[nH]ccc2c(NC3CCCCC3)ncnc12
318 (≈ 73.2 µg/mL)	2.5	O=c1[nH]ccc2c(NC3CCCC3)ncnc12
74 (≈ 21 µg/mL)		CNc1nc(N[C@@H]2CCC[C@@H]2C#N)c2cc[nH]c(=O)c2n1 (racemic)
8.6 (≈ 2.91 µg/mL)		N#C[C@H]1CCC[C@H]1Nc1nc(N2CCCCC2)nc2c(=O)[nH]ccc12 (racemic)
51 (≈ 17.4 µg/mL)		N#C[C@H]1CCC[C@H]1Nc1nc(N2CCOCC2)nc2c(=O)[nH]ccc12 (racemic)
19 (≈ 6.24 µg/mL)		CN(CCO)c1nc(N[C@@H]2CCC[C@@H]2C#N)c2cc[nH]c(=O)c2n1 (racemic)
11 (≈ 3.65 µg/mL)		N#C[C@H]1CCC[C@H]1Nc1nc(-c2ccccc2)nc2c(=O)[nH]ccc12 (racemic)
24 (≈ 7.71 µg/mL)	0.2	N#C[C@H]1CCC[C@H]1Nc1nc(-c2cn[nH]c2)nc2c(=O)[nH]ccc12 (racemic)
140 (≈ 39.7 µg/mL)	0.6	CCc1nc(N[C@@H]2CCC[C@@H]2C#N)c2cc[nH]c(=O)c2n1 (racemic)
104 (≈ 26.5 µg/mL)		N#C[C@H]1CCC[C@H]1Nc1ncnc2c(=O)[nH]ccc12 (racemic)
119 (≈ 30.4 µg/mL)		N#CC1CCCC1Nc1ncnc2c(=O)[nH]ccc12 (single isomer, unassigned; enantiomer 1)
